Measured values taken from the kinase profiling compilation of Christmann-Franck et al. (2016).

Columns and labels:
Assay in all cases: radiometric filter-binding kinase assay
IKBKB (human) = IKBKB (human) (UniProt O14920); conditions: compound 0.01 µM
GCK (human) = GCK (human) (UniProt Q12851)
[1] = test system: AKT1 (human), P31749 [S473D]
EPHB2 (human) = EPHB2 (human) (UniProt P29323)
EPHA2 (human) = EPHA2 (human) (UniProt P29317)
LCK (mouse) = conditions: accession and sequence are those of the human protein
PAK6 (human) = PAK6 (human) (UniProt Q9NQU5)
CDK2 CCNA2 (human) = CDK2 CCNA2 (human) (UniProt P20248+P24941)
MAPK10 (human) = MAPK10 (human) (UniProt P53779)
EPHA4 (human) = EPHA4 (human) (UniProt P54764)
PKN2 (human) = PKN2 (human) (UniProt Q16513)
MAPK8 (human) = MAPK8 (human) (UniProt P45983)
MYLK (human) = MYLK (human) (UniProt Q15746)
NUAK1 (human) = NUAK1 (human) (UniProt O60285)
Chain of NUAK1 (human) (O60285 whole entry, looked up): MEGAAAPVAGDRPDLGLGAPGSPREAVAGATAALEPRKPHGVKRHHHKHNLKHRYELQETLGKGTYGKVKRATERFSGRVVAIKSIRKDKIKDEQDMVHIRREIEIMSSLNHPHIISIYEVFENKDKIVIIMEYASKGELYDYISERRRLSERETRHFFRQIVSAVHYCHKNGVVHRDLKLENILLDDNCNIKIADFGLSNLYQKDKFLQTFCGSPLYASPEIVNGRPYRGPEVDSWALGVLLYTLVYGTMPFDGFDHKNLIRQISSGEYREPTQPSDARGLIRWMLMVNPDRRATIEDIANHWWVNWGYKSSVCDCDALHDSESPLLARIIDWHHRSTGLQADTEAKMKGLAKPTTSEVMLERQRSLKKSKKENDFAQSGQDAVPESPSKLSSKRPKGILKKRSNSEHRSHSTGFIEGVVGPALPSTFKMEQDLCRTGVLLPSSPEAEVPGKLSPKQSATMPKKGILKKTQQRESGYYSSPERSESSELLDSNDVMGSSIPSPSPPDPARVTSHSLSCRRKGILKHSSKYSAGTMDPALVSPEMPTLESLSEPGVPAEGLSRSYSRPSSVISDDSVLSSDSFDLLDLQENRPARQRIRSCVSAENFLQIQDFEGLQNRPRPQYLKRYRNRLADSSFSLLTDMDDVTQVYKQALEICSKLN

CHEK2 (human) = CHEK2 (human) (UniProt O96017)
RPS6KA3 KD1 KD2 (human) = RPS6KA3 KD1 KD2 (human) (UniProt P51812)
EPHB3 (human) = EPHB3 (human) (UniProt P54753)
ROCK2 (rat) = conditions: accession and sequence are those of the human protein
SRC (human) = SRC (human) (UniProt P12931)
Chain of SRC (human) (P12931 whole entry, looked up): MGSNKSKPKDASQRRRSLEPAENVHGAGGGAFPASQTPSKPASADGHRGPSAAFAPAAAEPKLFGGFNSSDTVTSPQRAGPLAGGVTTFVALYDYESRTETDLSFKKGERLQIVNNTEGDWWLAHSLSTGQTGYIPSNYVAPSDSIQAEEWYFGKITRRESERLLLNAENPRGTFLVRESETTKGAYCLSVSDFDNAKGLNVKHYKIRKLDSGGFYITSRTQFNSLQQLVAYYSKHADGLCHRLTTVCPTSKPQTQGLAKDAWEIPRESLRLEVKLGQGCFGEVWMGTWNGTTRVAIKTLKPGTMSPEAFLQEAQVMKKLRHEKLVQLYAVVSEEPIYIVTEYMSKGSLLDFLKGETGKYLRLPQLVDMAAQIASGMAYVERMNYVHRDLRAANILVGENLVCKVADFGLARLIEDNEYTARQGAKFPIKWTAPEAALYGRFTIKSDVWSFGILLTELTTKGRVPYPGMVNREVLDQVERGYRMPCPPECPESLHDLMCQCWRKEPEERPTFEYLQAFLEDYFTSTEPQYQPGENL

TBK1 (human) = TBK1 (human) (UniProt Q9UHD2)
CHEK1 (human) = CHEK1 (human) (UniProt O14757)
MAP3K7 TAB1 (human) = MAP3K7 TAB1 (human) (UniProt Q15750+O43318)
[2] = test system: PAK2 (human), Q13177 [T402E]
MAP2K1 (human) = MAP2K1 (human) (UniProt Q02750)
CSK (human) = CSK (human) (UniProt P41240)
EPHB1 (human) = EPHB1 (human) (UniProt P54762)
AURKB (human) = AURKB (human) (UniProt Q96GD4)
MST4 (human) = MST4 (human) (UniProt Q9P289)
Chain of MST4 (human) (Q9P289 whole entry, looked up): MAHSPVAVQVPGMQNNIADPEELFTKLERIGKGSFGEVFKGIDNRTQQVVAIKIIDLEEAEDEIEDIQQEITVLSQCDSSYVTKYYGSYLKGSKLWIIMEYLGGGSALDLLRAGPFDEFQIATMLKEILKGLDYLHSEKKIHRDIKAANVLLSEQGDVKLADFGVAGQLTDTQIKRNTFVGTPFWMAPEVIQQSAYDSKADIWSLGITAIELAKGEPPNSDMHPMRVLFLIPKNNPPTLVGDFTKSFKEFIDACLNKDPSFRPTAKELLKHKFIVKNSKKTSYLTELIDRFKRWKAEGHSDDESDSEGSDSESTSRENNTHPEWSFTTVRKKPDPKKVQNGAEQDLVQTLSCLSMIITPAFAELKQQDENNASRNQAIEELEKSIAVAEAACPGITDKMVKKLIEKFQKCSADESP

TTK (human) = TTK (human) (UniProt P33981)
Chain of TTK (human) (P33981 whole entry, looked up): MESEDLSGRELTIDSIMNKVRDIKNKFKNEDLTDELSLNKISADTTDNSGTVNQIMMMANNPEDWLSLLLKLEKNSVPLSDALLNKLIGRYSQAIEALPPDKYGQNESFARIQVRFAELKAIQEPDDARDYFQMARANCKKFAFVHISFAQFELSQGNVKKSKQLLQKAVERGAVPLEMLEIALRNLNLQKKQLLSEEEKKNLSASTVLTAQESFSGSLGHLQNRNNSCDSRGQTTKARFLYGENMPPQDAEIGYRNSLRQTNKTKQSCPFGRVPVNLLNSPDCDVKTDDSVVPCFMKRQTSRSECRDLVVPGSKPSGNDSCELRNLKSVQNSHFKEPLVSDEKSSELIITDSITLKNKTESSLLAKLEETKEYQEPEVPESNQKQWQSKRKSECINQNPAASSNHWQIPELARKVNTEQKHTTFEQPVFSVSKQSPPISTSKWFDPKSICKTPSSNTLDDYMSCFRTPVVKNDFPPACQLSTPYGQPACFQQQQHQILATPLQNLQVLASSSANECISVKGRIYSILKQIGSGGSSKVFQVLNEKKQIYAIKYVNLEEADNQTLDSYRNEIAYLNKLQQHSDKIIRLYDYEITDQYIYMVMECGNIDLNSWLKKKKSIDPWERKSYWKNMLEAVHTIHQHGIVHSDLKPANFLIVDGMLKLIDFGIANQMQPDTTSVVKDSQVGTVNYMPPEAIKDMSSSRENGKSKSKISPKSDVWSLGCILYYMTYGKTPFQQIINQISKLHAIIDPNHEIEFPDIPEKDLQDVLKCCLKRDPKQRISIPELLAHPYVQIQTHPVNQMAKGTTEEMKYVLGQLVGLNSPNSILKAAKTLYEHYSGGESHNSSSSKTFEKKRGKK

MAP3K11 (human) = MAP3K11 (human) (UniProt Q16584)
Chain of MAP3K11 (human) (Q16584 whole entry, looked up): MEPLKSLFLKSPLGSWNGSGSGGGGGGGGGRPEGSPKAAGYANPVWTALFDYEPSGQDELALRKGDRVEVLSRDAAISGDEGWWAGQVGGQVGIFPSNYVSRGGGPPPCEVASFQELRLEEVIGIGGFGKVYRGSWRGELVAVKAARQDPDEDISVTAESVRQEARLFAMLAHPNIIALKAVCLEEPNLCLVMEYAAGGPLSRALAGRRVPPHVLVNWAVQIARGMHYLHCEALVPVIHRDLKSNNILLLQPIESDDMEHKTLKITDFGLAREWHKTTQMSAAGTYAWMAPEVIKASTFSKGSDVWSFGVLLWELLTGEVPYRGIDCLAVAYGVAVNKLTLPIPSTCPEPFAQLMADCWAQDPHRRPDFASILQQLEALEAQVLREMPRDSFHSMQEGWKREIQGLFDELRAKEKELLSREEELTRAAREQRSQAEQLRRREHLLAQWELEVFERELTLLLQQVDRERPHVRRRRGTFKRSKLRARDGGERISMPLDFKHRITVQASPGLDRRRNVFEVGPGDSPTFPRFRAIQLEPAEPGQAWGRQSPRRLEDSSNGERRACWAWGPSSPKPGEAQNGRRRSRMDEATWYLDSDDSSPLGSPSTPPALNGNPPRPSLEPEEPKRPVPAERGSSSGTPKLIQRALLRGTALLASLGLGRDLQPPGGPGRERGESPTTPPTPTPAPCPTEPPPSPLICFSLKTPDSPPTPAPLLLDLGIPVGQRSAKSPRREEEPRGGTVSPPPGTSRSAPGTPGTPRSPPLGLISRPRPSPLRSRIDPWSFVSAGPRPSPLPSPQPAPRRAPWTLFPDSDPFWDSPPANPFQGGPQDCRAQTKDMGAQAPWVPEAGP

DYRK3 (human) = DYRK3 (human) (UniProt O43781)
CaMK1 (human) = CaMK1 (human) (UniProt Q14012)
MINK1 (human) = MINK1 (human) (UniProt Q8N4C8)
TAOK1 (human) = TAOK1 (human) (UniProt Q7L7X3)
Chain of TAOK1 (human) (Q7L7X3 whole entry, looked up): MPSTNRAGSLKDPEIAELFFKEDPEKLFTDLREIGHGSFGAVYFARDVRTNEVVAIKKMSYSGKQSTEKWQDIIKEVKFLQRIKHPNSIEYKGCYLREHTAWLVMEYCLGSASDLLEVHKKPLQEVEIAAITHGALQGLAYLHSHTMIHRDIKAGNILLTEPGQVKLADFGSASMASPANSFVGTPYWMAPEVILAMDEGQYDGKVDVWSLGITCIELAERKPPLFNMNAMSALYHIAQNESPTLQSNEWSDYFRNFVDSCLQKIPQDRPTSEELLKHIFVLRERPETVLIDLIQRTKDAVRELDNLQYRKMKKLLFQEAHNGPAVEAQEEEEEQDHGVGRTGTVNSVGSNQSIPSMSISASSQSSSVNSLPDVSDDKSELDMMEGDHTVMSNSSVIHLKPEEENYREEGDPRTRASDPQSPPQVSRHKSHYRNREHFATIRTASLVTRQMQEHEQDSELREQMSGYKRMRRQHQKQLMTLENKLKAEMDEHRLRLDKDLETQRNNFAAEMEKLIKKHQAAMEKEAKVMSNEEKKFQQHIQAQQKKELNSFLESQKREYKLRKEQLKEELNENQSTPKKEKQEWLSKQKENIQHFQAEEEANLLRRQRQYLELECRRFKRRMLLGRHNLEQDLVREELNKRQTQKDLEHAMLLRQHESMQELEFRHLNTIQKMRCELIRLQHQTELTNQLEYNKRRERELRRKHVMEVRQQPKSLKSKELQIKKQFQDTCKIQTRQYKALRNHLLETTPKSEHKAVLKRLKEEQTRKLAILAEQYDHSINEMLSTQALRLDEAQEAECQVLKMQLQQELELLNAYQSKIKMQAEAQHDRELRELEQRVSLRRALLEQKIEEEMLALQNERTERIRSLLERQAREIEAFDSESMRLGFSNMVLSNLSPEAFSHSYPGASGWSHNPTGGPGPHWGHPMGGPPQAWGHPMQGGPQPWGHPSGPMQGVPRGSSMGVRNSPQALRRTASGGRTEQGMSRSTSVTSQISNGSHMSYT

PAK4 (human) = PAK4 (human) (UniProt O96013)
Chain of PAK4 (human) (O96013 whole entry, looked up): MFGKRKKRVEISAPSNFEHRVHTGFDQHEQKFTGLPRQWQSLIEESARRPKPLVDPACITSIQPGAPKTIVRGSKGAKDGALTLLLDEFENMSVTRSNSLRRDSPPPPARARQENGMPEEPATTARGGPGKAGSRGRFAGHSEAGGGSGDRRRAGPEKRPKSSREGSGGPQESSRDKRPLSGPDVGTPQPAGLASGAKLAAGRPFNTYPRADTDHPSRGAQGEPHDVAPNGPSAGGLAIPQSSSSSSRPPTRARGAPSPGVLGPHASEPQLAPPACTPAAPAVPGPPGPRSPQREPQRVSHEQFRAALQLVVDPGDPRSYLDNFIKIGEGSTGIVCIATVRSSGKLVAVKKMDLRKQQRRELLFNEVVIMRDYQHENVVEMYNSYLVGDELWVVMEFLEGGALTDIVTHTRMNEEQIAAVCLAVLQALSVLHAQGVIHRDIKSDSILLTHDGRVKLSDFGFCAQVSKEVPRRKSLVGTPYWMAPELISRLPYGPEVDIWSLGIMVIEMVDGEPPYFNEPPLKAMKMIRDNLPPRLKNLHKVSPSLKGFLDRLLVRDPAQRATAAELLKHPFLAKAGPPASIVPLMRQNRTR

- residual activity (IKBKB (human)): 79%
- residual activity (GCK (human); compound 0.01 µM): 112%
- residual activity (GCK (human); compound 0.1 µM): 103%
- residual activity (GCK (human); compound 1.0 µM): 108%
- residual activity ([1]; compound 0.01 µM): 97%
- residual activity ([1]; compound 0.1 µM): 95%
- residual activity ([1]; compound 1.0 µM): 104%
- residual activity (EPHB2 (human); compound 0.1 µM): 108%
- residual activity (EPHB2 (human); compound 1.0 µM): 95%
- residual activity (EPHA2 (human); compound 0.01 µM): 95%
- residual activity (EPHA2 (human); compound 0.1 µM): 93%
- residual activity (EPHA2 (human); compound 1.0 µM): 100%
- residual activity (LCK (mouse); compound 0.01 µM): 106%
- residual activity (LCK (mouse); compound 0.1 µM): 97%
- residual activity (LCK (mouse); compound 1.0 µM): 95%
- residual activity (PAK6 (human); compound 0.01 µM): 100%
- residual activity (PAK6 (human); compound 0.1 µM): 88%
- residual activity (PAK6 (human); compound 1.0 µM): 93%
- residual activity (CDK2 CCNA2 (human); compound 0.01 µM): 95%
- residual activity (CDK2 CCNA2 (human); compound 0.1 µM): 98%
- residual activity (CDK2 CCNA2 (human); compound 1.0 µM): 85%
- residual activity (MAPK10 (human); compound 0.01 µM): 85%
- residual activity (MAPK10 (human); compound 0.1 µM): 88%
- residual activity (MAPK10 (human); compound 1.0 µM): 79%
- residual activity (EPHA4 (human); compound 0.01 µM): 101%
- residual activity (EPHA4 (human); compound 0.1 µM): 124%
- residual activity (EPHA4 (human); compound 1.0 µM): 93%
- residual activity (PKN2 (human); compound 0.01 µM): 77%
- residual activity (PKN2 (human); compound 0.1 µM): 104%
- residual activity (PKN2 (human); compound 1.0 µM): 75%
- residual activity (MAPK8 (human); compound 0.01 µM): 87%
- residual activity (MAPK8 (human); compound 0.1 µM): 93%
- residual activity (MAPK8 (human); compound 1.0 µM): 91%
- residual activity (MYLK (human); compound 0.01 µM): 96%
- residual activity (MYLK (human); compound 0.1 µM): 93%
- residual activity (MYLK (human); compound 1.0 µM): 106%
- residual activity (NUAK1 (human); compound 0.01 µM): 100%
- residual activity (NUAK1 (human); compound 0.1 µM): 116%
- residual activity (NUAK1 (human); compound 1.0 µM): 98%
- residual activity (CHEK2 (human); compound 0.01 µM): 93%
- residual activity (CHEK2 (human); compound 0.1 µM): 114%
- residual activity (CHEK2 (human); compound 1.0 µM): 89%
- residual activity (RPS6KA3 KD1 KD2 (human); compound 0.01 µM): 112%
- residual activity (RPS6KA3 KD1 KD2 (human); compound 0.1 µM): 106%
- residual activity (RPS6KA3 KD1 KD2 (human); compound 1.0 µM): 89%
- residual activity (EPHB3 (human); compound 0.01 µM): 99%
- residual activity (EPHB3 (human); compound 0.1 µM): 95%
- residual activity (EPHB3 (human); compound 1.0 µM): 99%
- residual activity (ROCK2 (rat); compound 0.01 µM): 105%
- residual activity (ROCK2 (rat); compound 0.1 µM): 106%
- residual activity (ROCK2 (rat); compound 1.0 µM): 97%
- residual activity (SRC (human); compound 0.01 µM): 100%
- residual activity (SRC (human); compound 0.1 µM): 107%
- residual activity (SRC (human); compound 1.0 µM): 102%
- residual activity (TBK1 (human); compound 0.01 µM): 99%
- residual activity (TBK1 (human); compound 0.1 µM): 101%
- residual activity (TBK1 (human); compound 1.0 µM): 102%
- residual activity (CHEK1 (human); compound 0.01 µM): 103%
- residual activity (CHEK1 (human); compound 0.1 µM): 99%
- residual activity (CHEK1 (human); compound 1.0 µM): 104%
- residual activity (MAP3K7 TAB1 (human); compound 0.01 µM): 92%
- residual activity (MAP3K7 TAB1 (human); compound 1.0 µM): 84%
- residual activity ([2]; compound 0.01 µM): 110%
- residual activity ([2]; compound 0.1 µM): 126%
- residual activity ([2]; compound 1.0 µM): 104%
- residual activity (MAP2K1 (human); compound 0.01 µM): 72%
- residual activity (MAP2K1 (human); compound 0.1 µM): 76%
- residual activity (MAP2K1 (human); compound 1.0 µM): 61%
- residual activity (CSK (human); compound 0.01 µM): 96%
- residual activity (CSK (human); compound 0.1 µM): 95%
- residual activity (CSK (human); compound 1.0 µM): 89%
- residual activity (EPHB1 (human); compound 0.01 µM): 106%
- residual activity (EPHB1 (human); compound 0.1 µM): 120%
- residual activity (EPHB1 (human); compound 1.0 µM): 94%
- residual activity (AURKB (human); compound 0.01 µM): 93%
- residual activity (AURKB (human); compound 0.1 µM): 103%
- residual activity (AURKB (human); compound 1.0 µM): 89%
- residual activity (MST4 (human); compound 0.01 µM): 106%
- residual activity (MST4 (human); compound 0.1 µM): 99%
- residual activity (MST4 (human); compound 1.0 µM): 106%
- residual activity (TTK (human); compound 0.01 µM): 93%
- residual activity (TTK (human); compound 0.1 µM): 99%
- residual activity (TTK (human); compound 1.0 µM): 96%
- residual activity (MAP3K11 (human); compound 0.01 µM): 88%
- residual activity (MAP3K11 (human); compound 0.1 µM): 104%
- residual activity (MAP3K11 (human); compound 1.0 µM): 87%
- residual activity (DYRK3 (human); compound 0.01 µM): 92%
- residual activity (DYRK3 (human); compound 0.1 µM): 119%
- residual activity (DYRK3 (human); compound 1.0 µM): 91%
- residual activity (CaMK1 (human); compound 0.01 µM): 116%
- residual activity (CaMK1 (human); compound 0.1 µM): 128%
- residual activity (CaMK1 (human); compound 1.0 µM): 109%
- residual activity (MINK1 (human); compound 0.01 µM): 125%
- residual activity (MINK1 (human); compound 0.1 µM): 113%
- residual activity (MINK1 (human); compound 1.0 µM): 120%
- residual activity (TAOK1 (human); compound 0.01 µM): 91%
- residual activity (TAOK1 (human); compound 0.1 µM): 101%
- residual activity (TAOK1 (human); compound 1.0 µM): 105%
- residual activity (PAK4 (human); compound 0.01 µM): 111%
- residual activity (PAK4 (human); compound 0.1 µM): 98%
- residual activity (PAK4 (human); compound 1.0 µM): 102%
SMILES: O=C(Nc1nc2cc(C(F)(F)F)cc(NC3CC3)n2n1)c1cccnc1
